Columns and labels:
[1] = biological target: T1, Cbl-b (Homo sapiens, UniProt Q13191); test: Cbl-b Degradation Method A (FACS, anti-Cbl-b antibody staining); format: cell-based; conditions: Cbl-b-HiBit KI Jurkat Cells, incubated at least 20 hours; for DC50: half maximal degradation, read-out: Cbl-b Degredation Method A IC50; for Dmax: Jurkat, maximum degradation observed, read-out: Cbl-b Degredation Method A Dmax (%)
T1 construct: Cbl-b-HiBit KI Jurkat Cells were purchased from Promega; host or cells: Cbl-b-HiBiT knock-in Jurkat cells
Procedure, shortened: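 Cbl-b-HiBit KI Jurkat cells treated with compound for at least 20 h at 37 °C, then fixed, permeabilized and stained with anti-Cbl-b antibody plus anti-rabbit AF488 secondary. Cbl-b levels read by FACS; DC50 and Dmax (percent of control) derived.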

[2] = biological target: T1, Cbl-b; test: Cbl-b Degradation Method B (Nano-Glo HiBiT lytic detection); format: cell-based; conditions: Cbl-b-HiBit KI Jurkat Cells, incubated at least 6-24 hours; for DC50: half maximal degradation, read-out: Cbl-b Degredation Method B IC50; for Dmax: read-out: Cbl-b Degredation Method B Dmax (%)
Procedure, shortened: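 Cbl-b-HiBiT knock-in Jurkat cells (20,000/well) were treated after ~24 h plating with an 11-point 1:3 series for 6-24 h at 37° C. Remaining Cbl-b measured by Nano-Glo HiBiT lytic luminescence. DC50 and Dmax expressed as % of control.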

T1 sequence (Q13191 whole entry): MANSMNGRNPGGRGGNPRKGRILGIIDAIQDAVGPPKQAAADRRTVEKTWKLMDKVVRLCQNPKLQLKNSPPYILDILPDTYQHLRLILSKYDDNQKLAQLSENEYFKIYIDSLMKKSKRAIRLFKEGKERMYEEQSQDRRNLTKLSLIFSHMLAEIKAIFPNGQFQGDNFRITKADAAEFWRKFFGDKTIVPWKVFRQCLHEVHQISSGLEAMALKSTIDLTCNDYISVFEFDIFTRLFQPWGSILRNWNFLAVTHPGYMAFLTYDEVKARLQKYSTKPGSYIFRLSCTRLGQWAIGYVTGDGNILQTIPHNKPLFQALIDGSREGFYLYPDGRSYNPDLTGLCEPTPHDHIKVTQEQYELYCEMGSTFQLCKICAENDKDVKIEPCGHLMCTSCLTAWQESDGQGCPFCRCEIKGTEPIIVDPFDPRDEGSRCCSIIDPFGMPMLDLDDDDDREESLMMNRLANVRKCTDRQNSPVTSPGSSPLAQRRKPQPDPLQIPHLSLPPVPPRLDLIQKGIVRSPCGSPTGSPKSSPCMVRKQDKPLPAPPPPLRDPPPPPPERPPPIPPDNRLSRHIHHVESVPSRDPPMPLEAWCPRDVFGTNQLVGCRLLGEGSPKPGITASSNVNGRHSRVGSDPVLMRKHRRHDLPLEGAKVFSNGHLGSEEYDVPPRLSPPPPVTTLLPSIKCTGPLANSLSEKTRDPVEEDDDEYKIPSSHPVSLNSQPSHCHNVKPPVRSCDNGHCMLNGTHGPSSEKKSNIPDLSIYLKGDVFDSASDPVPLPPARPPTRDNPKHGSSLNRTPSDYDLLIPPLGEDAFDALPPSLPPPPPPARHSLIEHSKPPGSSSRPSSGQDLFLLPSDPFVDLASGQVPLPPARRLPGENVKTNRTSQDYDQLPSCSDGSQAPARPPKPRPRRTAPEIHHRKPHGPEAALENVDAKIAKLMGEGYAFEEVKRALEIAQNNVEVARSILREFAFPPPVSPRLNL

Row | Compound | DC50 [1] | Dmax [1] | DC50 [2] | Dmax ([2]; maximum degradation observed) | Cbl-b Degredation Method B Dmax (%) ([2]; maximum degradation observed)
1 | CC1c2nc(N3CCC(O[C@H]4CC[C@@H](CN5CCN(C[C@H]6CCCN(Cc7cc8c(c(C(F)(F)F)c7)CN(c7cccc(C9(Cc%10nncn%10C)COC9)c7)C8=O)C6)CC5)CC4)CC3)ccc2C(=O)N1C1CCC(=O)NC1=O (stereo partly drawn) [Example 160, 3-[7-methyl-5-oxo-2-(4-{[(1r,4r)-4-[(4-{[(3S)-1-{[2-(3-{3-[(4-methyl-4H-1,2,4-triazol-3-yl)methyl]oxetan-3-yl}phenyl)-3-oxo-7-(trifluoromethyl)-2,3-dihydro-1H-isoindol-5-yl]methyl}piperidin-3-yl]methyl}piperazin-1-yl)methyl]cyclohexyl]oxy}piperidin-1-yl)-5H,6H,7H-pyrrolo[3,4-b]pyridin-6-yl]piperidine-2,6-dione] | < 5 nM | 35 to 70% | < 5 nM | 35 to 70% | 
2 | Cn1cnnc1CC1(c2cccc(N3Cc4c(cc(CN5CCN(C[C@H]6CC[C@H](OC7CCN(c8cccc9c8ncn9C8CCC(=O)NC8=O)CC7)CC6)CC5(C)C)cc4C(F)(F)F)C3=O)c2)CC(C#N)C1 (stereo partly shown) [Example 314, (1r**,3r**)-3-(3-{6-[(2,2-dimethyl-4-{[(1r*,4r*)-4-({1-[1-(2,6-dioxopiperidin-3-yl)-1H-1,3-benzodiazol-4-yl]piperidin-4-yl}oxy)cyclohexyl]methyl}piperazin-1-yl)methyl]-1-oxo-4-(trifluoromethyl)-2,3-dihydro-1H-isoindol-2-yl}phenyl)-3-[(4-methyl-4H-1,2,4-triazol-3-yl)methyl]cyclobutane-1-carbonitrile] | 5 to 50 nM | 35 to 70% | 50 to 500 nM |  | B (35 < B < 70)
3 | CC1c2nc(N3CCC(O[C@H]4CC[C@H](CN5CCN(Cc6cc7c(c(C(F)(F)F)c6)CN(c6cccc(C8(Cc9nncn9C)CC8)c6)C7=O)CC5)CC4)CC3)ccc2C(=O)N1C1CCC(=O)NC1=O (mixture of isomers) [Example 234, rac-3-[7-methyl-5-oxo-2-(4-{[(1r,4r)-4-[(4-{[2-(3-{1-[(4-methyl-4H-1,2,4-triazol-3-yl)methyl]cyclopropyl}phenyl)-3-oxo-7-(trifluoromethyl)-2,3-dihydro-1H-isoindol-5-yl]methyl}piperazin-1-yl)methyl]cyclohexyl]oxy}piperidin-1-yl)-5H,6H,7H-pyrrolo[3,4-b]pyridin-6-yl]piperidine-2,6-dione] | 5 to 50 nM | 35 to 70% | < 5 nM | 35 to 70% | 
4 | Cc1cc(N2CCC(O[C@H]3CC[C@H](CN4CCN(Cc5cc6c(c(C(F)(F)F)c5)CN(c5cccc([C@]7(Cc8nncn8C)C[C@H](C#N)C7)c5)C6=O)[C@@H](C)C4)CC3)CC2)c(F)c2c1C(=O)N(C1CCC(=O)NC1=O)C2 (stereo partly drawn) [Example 220, (1r,3r)-3-[3-(6-{[(2S)-2-methyl-4-{[(1r,4r)-4-({1-[2-(2,6-dioxopiperidin-3-yl)-4-fluoro-7-methyl-1-oxo-2,3-dihydro-1H-isoindol-5-yl]piperidin-4-yl}oxy)cyclohexyl]methyl}piperazin-1-yl]methyl}-1-oxo-4-(trifluoromethyl)-2,3-dihydro-1H-isoindol-2-yl)phenyl]-3-[(4-methyl-4H-1,2,4-triazol-3-yl)methyl]cyclobutane-1-carbonitrile] | 5 to 50 nM | > 70% | < 5 nM | > 70% | 
5 | CC1CN(C[C@H]2CC[C@H](OC3CCN(c4ccc5c(c4F)CN(C4CCC(=O)NC4=O)C5=O)CC3)CC2)CCN1Cc1cc2c(c(C(F)(F)F)c1)CN(c1cccc([C@]3(Cc4nncn4C)C[C@@H](C#N)C3)c1)C2=O (stereo partly shown) [Example 204, (1r,3r)-3-(3-{6-[(2-methyl-4-{[(1r,4r)-4-({1-[2-(2,6-dioxopiperidin-3-yl)-4-fluoro-1-oxo-2,3-dihydro-1H-isoindol-5-yl]piperidin-4-yl}oxy)cyclohexyl]methyl}piperazin-1-yl)methyl]-1-oxo-4-(trifluoromethyl)-2,3-dihydro-1H-isoindol-2-yl}phenyl)-3-[(4-methyl-4H-1,2,4-triazol-3-yl)methyl]cyclobutane-1-carbonitrile] | < 5 nM | > 70% | < 5 nM | 35 to 70% | 
6 | CC1c2nc(N3CCC(O[C@H]4CC[C@@H](CN5C[C@@H]6C[C@H]5CN6Cc5cc6c(c(C(F)(F)F)c5)CN(c5cccc(C7(Cc8nncn8C)CCC7)c5)C6=O)CC4)CC3)ccc2C(=O)N1C1CCC(=O)NC1=O (stereo partly drawn) [Example 223, 3-[7-methyl-5-oxo-2-(4-{[(1r,4r)-4-{[(1S,4S)-5-{[2-(3-{1-[(4-methyl-4H-1,2,4-triazol-3-yl)methyl]cyclobutyl}phenyl)-3-oxo-7-(trifluoromethyl)-2,3-dihydro-1H-isoindol-5-yl]methyl}-2,5-diazabicyclo[2.2.1]heptan-2-yl]methyl}cyclohexyl]oxy}piperidin-1-yl)-5H,6H,7H-pyrrolo[3,4-b]pyridin-6-yl]piperidine-2,6-dione] | 5 to 50 nM | 35 to 70% | < 5 nM | 35 to 70% | 

Results, then the compound that gave them:

Row | DC50 [1] | Dmax [1] | DC50 [2] | Dmax ([2]; maximum degradation observed) | Cbl-b Degredation Method B Dmax (%) ([2]; maximum degradation observed) | Compound
7 | 5 to 50 nM | > 70% | < 5 nM | 35 to 70% |  | Cn1cnnc1C[C@]1(c2cccc(N3Cc4c(cc(N5CC6(CCN(CC7CCN(c8ccc9c(c8Cl)CN(C8CCC(=O)NC8=O)C9=O)CC7)CC6)C5)cc4C(F)(F)F)C3=O)c2)C[C@H](C#N)C1 (stereo partly shown) [Example 173, (1r,3r)-3-(3-{6-[7-({1-[4-chloro-2-(2,6-dioxopiperidin-3-yl)-1-oxo-2,3-dihydro-1H-isoindol-5-yl]piperidin-4-yl}methyl)-2,7-diazaspiro[3.5]nonan-2-yl]-1-oxo-4-(trifluoromethyl)-2,3-dihydro-1H-isoindol-2-yl}phenyl)-3-[(4-methyl-4H-1,2,4-triazol-3-yl)methyl]cyclobutane-1-carbonitrile]
8 | > 500 nM |  | > 500 nM |  |  | Cn1cnnc1CC1(c2cccc(N3Cc4c(cc(CN5CCC(CN6CC7(CCN(c8ccc9c(c8)C(=O)N(C8CCC(=O)NC8=O)C9=O)CC7)C6)CC5)cc4C(F)(F)F)C3=O)c2)COC1 (stereo not shown) [Example 81, 2-(2,6-dioxopiperidin-3-yl)-5-{2-[(1-{[2-(3-{3-[(4-methyl-4H-1,2,4-triazol-3-yl)methyl]oxetan-3-yl}phenyl)-3-oxo-7-(trifluoromethyl)-2,3-dihydro-1H-isoindol-5-yl]methyl}piperidin-4-yl)methyl]-2,7-diazaspiro[3.5]nonan-7-yl}-2,3-dihydro-1H-isoindole-1,3-dione]
9 | 5 to 50 nM | < 35% | 5 to 50 nM | < 35% |  | Cn1cnnc1CC1(c2cccc(N3Cc4c(cc(CN5CCC[C@H](CN6CCC(CN7CC8(C7)CN(c7ccc9c(c7)C(=O)N(C7CCC(=O)NC7=O)C9=O)C8)CC6)C5)cc4C(F)(F)F)C3=O)c2)COC1 (stereo partly drawn) [Example 114, 2-(2,6-dioxopiperidin-3-yl)-5-{6-[(1-{[(3R)-1-{[2-(3-{3-[(4-methyl-4H-1,2,4-triazol-3-yl)methyl]oxetan-3-yl}phenyl)-3-oxo-7-(trifluoromethyl)-2,3-dihydro-1H-isoindol-5-yl]methyl}piperidin-3-yl]methyl}piperidin-4-yl)methyl]-2,6-diazaspiro[3.3]heptan-2-yl}-2,3-dihydro-1H-isoindole-1,3-dione]
10 | 50 to 500 nM | < 35% | > 500 nM |  |  | Cn1cnnc1CC1(c2cccc(N3Cc4c(cc(N5CCC(CN6CCC7(CC6)CN(c6ccc8c(c6)C(=O)N(C6CCC(=O)NC6=O)C8=O)C7)CC5)cc4C(F)(F)F)C3=O)c2)COC1 (stereo not shown) [Example 23, 2-(2,6-dioxopiperidin-3-yl)-5-[7-({1-[2-(3-{3-[(4-methyl-4H-1,2,4-triazol-3-yl)methyl]oxetan-3-yl}phenyl)-3-oxo-7-(trifluoromethyl)-2,3-dihydro-1H-isoindol-5-yl]piperidin-4-yl}methyl)-2,7-diazaspiro[3.5]nonan-2-yl]-2,3-dihydro-1H-isoindole-1,3-dione]
11 | 5 to 50 nM | > 70% | < 5 nM | 35 to 70% |  | Cn1cnnc1CC1(c2cccc(N3Cc4c(cc(CN5CCC[C@H](CN6CCC(CN7CCC(CN8CCN(c9ccc%10c(c9)C(=O)N(C9CCC(=O)NC9=O)C%10=O)CC8)CC7)CC6)C5)cc4C(F)(F)F)C3=O)c2)COC1 (stereo partly drawn) [Example 97, 2-(2,6-dioxopiperidin-3-yl)-5-[4-({1-[(1-{[(3R)-1-{[2-(3-{3-[(4-methyl-4H-1,2,4-triazol-3-yl)methyl]oxetan-3-yl}phenyl)-3-oxo-7-(trifluoromethyl)-2,3-dihydro-1H-isoindol-5-yl]methyl}piperidin-3-yl]methyl}piperidin-4-yl)methyl]piperidin-4-yl}methyl)piperazin-1-yl]-2,3-dihydro-1H-isoindole-1,3-dione]
12 | > 500 nM |  | > 500 nM |  |  | Cn1cnnc1CC1(c2cccc(N3Cc4c(cc(CN5CCN(C6CCC7(CC6)CCN(c6ccc8c(c6)C(=O)N(C6CCC(=O)NC6=O)C8=O)CC7)CC5)cc4C(F)(F)F)C3=O)c2)COC1 (stereo not shown) [Example 105, 2-(2,6-dioxopiperidin-3-yl)-5-[9-(4-{[2-(3-{3-[(4-methyl-4H-1,2,4-triazol-3-yl)methyl]oxetan-3-yl}phenyl)-3-oxo-7-(trifluoromethyl)-2,3-dihydro-1H-isoindol-5-yl]methyl}piperazin-1-yl)-3-azaspiro[5.5]undecan-3-yl]-2,3-dihydro-1H-isoindole-1,3-dione]

Source: patent US20260184710A1, “CASITAS B-LINEAGE LYMPHOMA PROTOONCOGENE B (CBL-B) DEGRADING COMPOUNDS AND ASSOCIATED METHODS OF USE” (Arvinas Operations, Inc., priority 2022, published 2026)
